We go through one compound from US20250325576A1, “COMPOSITIONS FOR USE IN CARTILAGE BREAKDOWN” (Société des Produits Nestlé S.A., priority 2013, published 2025).

Common to all, as to format: cell-based
Holding throughout (details): 1.5 μM each, 3 days

One assay has as its system ADAMTS-5. Briefly: ADAMTS-5 mRNA expression relative to GAPDH, bovine primary chondrocytes in alginate beads (real-time PCR).
The subject of a further assay is COX-2. Briefly: COX-2 mRNA expression relative to GAPDH, bovine primary chondrocytes in alginate beads (real-time PCR).
Another assay deals with MMP-13. The assay can be described thus: MMP-13 mRNA expression relative to GAPDH, bovine primary chondrocytes in alginate beads (real-time PCR).
Setting [1] is: disease conditions (IL1a 10 ng/ml), vs IL1a.
[2] abbreviates: normal conditions (absence of IL1a), vs CTL-.

Procedure for ADAMTS-5: (§1) The skin was removed from the foot. The articulation was opened transversally. Intra articular ligaments were transected. The opened articulation was washed with phosphate buffered saline. With a scalpel blade, full thickness slices of cartilage were dissected out and collected in DMEM high glucose with 10 mM hepes and 1% Penicillin-Streptomycin. Slices of cartilage were washed in DMEM high glucose with 10 mM hepes and 1% Penicillin-Streptomycin.
(§2) Cartilage was then digested successively by 0.5 mg/ml of hyluronidase during 30 minutes, 1.0 mg/ml of pronase E during 60 minutes and 1.0 mg/ml of collagenase overnight under slow agitation.
(§3) After the enzymatic incubation, the cell suspension was filtered through a 70 μm cell strainer to separate cell cluster and remove tissue debris. The cell suspension was centrifuged to pellet the cells. […]
(§4) Total RNA was isolated from pool of 40 beads and isolated using RNeasy kit from Qiagen. cDNA was obtained by reverse transcription of RNA with the Primescript 1st strand cDNA Synthesis kit from Takara. mRNA expression of ADAMTS-5, COX-2, MMP-13 and GAPDH were quantified in real-time PCR (SYBR Green)
(§5) Data were expressed as fold change in gene expression compared to negative control (cells cultured in complete medium).
(§6) Data were expressed as median±S.E.Median (2 experiments of 3 replicates each). […]
Procedure for COX-2: as §1, §2, §3, §4, §5, §6
Procedure for MMP-13: as §1, §2, §3, §4, §5, §6

Turning to `O=c1c(O)c(-c2ccc(O)c(O)c2)oc2cc(O)cc(O)c12` [Quercetin, quercetin], the “ADAMTS-5 mRNA expression relative to GAPDH” value with ADAMTS-5 (setting [1]) and in the assay with ADAMTS-5 (setting [2]) was “decrease expression of ADAMTS-5” in each case. In addition, the “COX-2 mRNA expression relative to GAPDH” value with COX-2 (setting [1]) is recorded as “decrease expression of COX-2”; in the assay on COX-2 (setting [2]) it was “reduce expression of COX-2”. The “MMP-13 mRNA expression relative to GAPDH” value in the assay on MMP-13 (setting [1]) and in the assay with MMP-13 (setting [2]) was “decrease expression of MMP-13” in each case.
